Reference: patent US20100273895A1, “FORMULATIONS OF CANNABIDIOL AND PRODRUGS OF CANNABIDIOL AND METHODS OF USING THE SAME” (AllTranz Inc., priority 2009, published 2010)

Experiment: CBD accelerated stability study at 40° C.
Type: physicochemical
Protocol: In order to assess the stability of cannabidiol formulations, the pH rate profiles over a range of probable pHs were studied. The rate profile with the lowest Kdeg would be desirable in order to ensure a two-year shelf life for a cannabidiol gel. The pH ranges studied were 4.0, 5.0, 5.5, 6.0, 6.5 and 7.0 prepared with either an acetate (0.01M: pH 4.0, 5.0 and 5.5) or phosphate (0.01 M: pH 6.0, 6.5 and 7.0) buffer system and maintained at an ionic strength of 0.154 M with NaCl at 40° C. CBD was prepared at 1 mg/mL and analyzed initially at a theoretical 10 μg/ml concentration. The results of these studies appear in FIGS. 13 and 14.
Additional stability studies were conducted with CBD synthesized by alternate routes. […] Over sixty-five days, the purity of CBD is still greater than 99%.

[1] = sixty-five day accelerated stability study at 40° C.

## C=C(C)[C@@H]1CCC(C)=C[C@H]1c1c(O)cc(CCCCC)cc1O [CBD, cannabidiol]
65 days in a 40° C. chamber
  28.9 min peak as share of the total area compared to the CBD peak: approximately 0.74%
Over sixty-five days
  purity of CBD: greater than 99%
[1]
  degradation: no significant degradation
  purity remaining: > 98%
